In patent publication US20230022400A1, “IMMUNOMODULATORS” (Bristol-Myers Squibb Company, priority 2019, published 2023):
Where a SMILES comes first, the peptide text is derived from it. Bridges are numbered along the chain shown (N, C = ends). [ ]: non-standard residue; d: D form. The star is where a group is joined. Trp(1-CH2COOH) = N[C@@H](Cc1cn(CC(=O)O)c2ccccc12)C(=O)O; X19 = c1ccc(N2CCN(c3ncnc(*)n3)CC2)cc1; Hyp = O=C(O)[C@@H]1C[C@@H](O)CN1; X8 = Cn1cnc2c(Cl)nc3sc(*)nc3c21; X16 = c1ccc2c(c1)sc1c(*)ncnc12; X2 = CSc1nc(*)c2sc3ccccc3c2n1; NMeNle = CCCC[C@H](NC)C(=O)O; X18 = c1ccc(-c2ccnc(*)n2)cc1; X4 = c1nc(*)c2c3c(sc2n1)CCC3; X17 = Clc1cc2nc(*)sc2cc1Cl; NMeA = CN[C@@H](C)C(=O)O; Dab = NCC[C@H](N)C(=O)O; Dap = NC[C@H](N)C(=O)O; X6 = c1ccc2nc(*)cnc2c1; X9 = Fc1cccc2sc(*)nc12; X1 = c1ccc2sc(*)nc2c1; X3 = N#Cc1ccc(*)nc1; X15 = c1cnc(*)cn1

Each compound was assayed against T1, PD-1/PD-L1 interaction (PD-1-Ig / PD-L1-His) (Homo sapiens, UniProt Q9NZQ7) (assay: PD-1/PD-L1 Homogenous Time-Resolved Fluorescence (HTRF) binding assay). Settings: PD-L1-His 10 nM final, PD-1-Ig 20 nM final; inhibitors pre-incubated with PD-L1-His for 15 m.
T1 construct: TVMV protease site (linker) (C); made in house; host or cells: HEK293T cells
From the text: The ability of the compounds of formula (I) to bind to PD-L1 was investigated using a PD-1/PD-L1 Homogenous Time-Resolved Fluorescence (HTRF) binding assay.
The interaction of PD-1 and PD-L1 can be assessed using soluble, purified preparations of the extracellular domains of the two proteins. The PD-1 and PD-L1 protein extracellular domains were expressed as fusion proteins with detection tags, for PD-1, the tag was the Fc portion of Immunoglobulin (PD-1-Ig) and for PD-L1 it was the 6 histidine motif (PD-L1-His). All binding studies were performed in an HTRF assay buffer consisting of dPBS supplemented with 0.1% […] bovine serum albumin and 0.05% (v/v) Tween-20. For the h/PD-L1-His binding assay, inhibitors were pre-incubated with PD-L1-His (10 nM final) for 15 m in 4 μl of assay buffer, followed by addition of PD-1-Ig (20 nM final) in 1 μl of assay buffer and further incubation for 15 m. HTRF detection was achieved using europium crypate-labeled anti-Ig (1 nM final) and allophycocyanin (APC) labeled anti-His (20 nM final). Antibodies were diluted in HTRF detection buffer and 5 μl was dispensed on top of the binding reaction. The reaction mixture was allowed to equilibrate for 30 minutes and the resulting signal (665 nm/620 nm ratio) was obtained using an EnVision fluorometer. Additional binding assays were established between the human proteins PD-1-Ig/PD-L2-His (20 & 5 nM, respectively) and CD80-His/PD-L1-Ig (100 & 10 nM, respectively).
Recombinant Proteins: Human PD-1 (25-167) with a C-terminal human Fc domain of immunoglobulin G (Ig) epitope tag [hPD-1 (25-167)-3S-IG] and human PD-L1 (18-239) with a C-terminal His epitope tag [hPD-L1(18-239)-TVMV-His] were expressed in HEK293T cells and purified sequentially by ProteinA affinity chromatography and size exclusion chromatography. Human PD-L2-His and CD80-His was obtained through commercial sources.
Table 1 lists the IC50 values for representative examples of this disclosure measured in the PD-1/PD-L1 Homogenous Time-Resolved Fluorescence (HTRF) binding assay.

T1 sequence (Q9NZQ7 18-239): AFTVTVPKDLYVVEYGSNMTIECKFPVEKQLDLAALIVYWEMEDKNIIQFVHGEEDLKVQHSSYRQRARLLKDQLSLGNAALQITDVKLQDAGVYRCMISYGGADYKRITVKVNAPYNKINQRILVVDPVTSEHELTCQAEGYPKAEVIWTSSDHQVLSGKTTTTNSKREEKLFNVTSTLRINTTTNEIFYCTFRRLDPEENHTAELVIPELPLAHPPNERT

IC50 [nM] | Structure (SMILES)
14 | CCCC[C@H]1C(=O)N(C)[C@@H](CCCC)C(=O)N[C@@H](CC(C)C)C(=O)N[C@H](C(=O)NCC(N)=O)CSCC(=O)N[C@@H](Cc2ccc(O)cc2)C(=O)N(C)[C@@H](C)C(=O)N[C@@H](CC(N)=O)C(=O)N2CCC[C@H]2C(=O)N[C@@H](CNc2ncnc3sc4c(c23)CCC4)C(=O)N[C@@H](CC(C)C)C(=O)N2C[C@H](O)C[C@H]2C(=O)N[C@@H](Cc2c[nH]c3ccccc23)C(=O)N[C@@H](CCNc2ncnc3sc4c(c23)CCC4)C(=O)N[C@@H](Cc2cn(CC(=O)O)c3ccccc23)C(=O)N1C [Compound 21012] ({CH2CO}-Y[NMeA]NP[Dap](X4)L[Hyp]W[Dab](X4)[Trp(1-CH2COOH)][NMeNle][NMeNle]LCG-NH2; thioether N-14)
6.5 | CCCC[C@H]1C(=O)N(C)[C@@H](CCCC)C(=O)N[C@@H](CC(C)C)C(=O)N[C@H](C(=O)NCC(N)=O)CSCC(=O)N[C@@H](Cc2ccc(O)cc2)C(=O)N(C)[C@@H](C)C(=O)N[C@@H](CC(N)=O)C(=O)N2CCC[C@H]2C(=O)N[C@@H](CNc2nc(SC)nc3c2sc2ccccc23)C(=O)N[C@@H](CC(C)C)C(=O)N2C[C@H](O)C[C@H]2C(=O)N[C@@H](Cc2c[nH]c3ccccc23)C(=O)N[C@@H](CCN)C(=O)N[C@@H](Cc2cn(CC(=O)O)c3ccccc23)C(=O)N1C [Compound 21008] ({CH2CO}-Y[NMeA]NP[Dap](X2)L[Hyp]W[Dab][Trp(1-CH2COOH)][NMeNle][NMeNle]LCG-NH2; thioether N-14)
5.1 | CCCC[C@H]1C(=O)N(C)[C@@H](CCCC)C(=O)N[C@@H](CC(C)C)C(=O)N[C@H](C(=O)NCC(N)=O)CSCC(=O)N[C@@H](Cc2ccc(O)cc2)C(=O)N(C)[C@@H](C)C(=O)N[C@@H](CC(N)=O)C(=O)N2CCC[C@H]2C(=O)N[C@@H](CNc2cnccn2)C(=O)N[C@@H](CC(C)C)C(=O)N2C[C@H](O)C[C@H]2C(=O)N[C@@H](Cc2c[nH]c3ccccc23)C(=O)N[C@@H](CCNc2cnccn2)C(=O)N[C@@H](Cc2cn(CC(=O)O)c3ccccc23)C(=O)N1C [Compound 1004] ({CH2CO}-Y[NMeA]NP[Dap](X15)L[Hyp]W[Dab](X15)[Trp(1-CH2COOH)][NMeNle][NMeNle]LCG-NH2; thioether N-14)
5.3 | CCCC[C@H]1C(=O)N(C)[C@@H](CCCC)C(=O)N[C@@H](CC(C)C)C(=O)N[C@H](C(=O)NCC(N)=O)CSCC(=O)N[C@@H](Cc2ccc(O)cc2)C(=O)N(C)[C@@H](C)C(=O)N[C@@H](CC(N)=O)C(=O)N2CCC[C@H]2C(=O)N[C@@H](CNc2nc3c(F)cccc3s2)C(=O)N[C@@H](CC(C)C)C(=O)N2C[C@H](O)C[C@H]2C(=O)N[C@@H](Cc2c[nH]c3ccccc23)C(=O)N[C@@H](CCN)C(=O)N[C@@H](Cc2cn(CC(=O)O)c3ccccc23)C(=O)N1C [Compound 11008] ({CH2CO}-Y[NMeA]NP[Dap](X9)L[Hyp]W[Dab][Trp(1-CH2COOH)][NMeNle][NMeNle]LCG-NH2; thioether N-14)
7.1 | CCCC[C@H]1C(=O)N(C)[C@@H](CCCC)C(=O)N[C@@H](CC(C)C)C(=O)N[C@H](C(=O)NCC(N)=O)CSCC(=O)N[C@@H](Cc2ccc(O)cc2)C(=O)N(C)[C@@H](C)C(=O)N[C@@H](CC(N)=O)C(=O)N2CCC[C@H]2C(=O)N[C@@H](CNc2cnc3ccccc3n2)C(=O)N[C@@H](CC(C)C)C(=O)N2C[C@H](O)C[C@H]2C(=O)N[C@@H](Cc2c[nH]c3ccccc23)C(=O)N[C@@H](CCN)C(=O)N[C@@H](Cc2cn(CC(=O)O)c3ccccc23)C(=O)N1C [Compound 11003] ({CH2CO}-Y[NMeA]NP[Dap](X6)L[Hyp]W[Dab][Trp(1-CH2COOH)][NMeNle][NMeNle]LCG-NH2; thioether N-14)
5.7 | CCCC[C@H]1C(=O)N(C)[C@@H](CCCC)C(=O)N[C@@H](CC(C)C)C(=O)N[C@H](C(=O)NCC(N)=O)CSCC(=O)N[C@@H](Cc2ccc(O)cc2)C(=O)N(C)[C@@H](C)C(=O)N[C@@H](CC(N)=O)C(=O)N2CCC[C@H]2C(=O)N[C@@H](CNc2ncnc3c2sc2ccccc23)C(=O)N[C@@H](CC(C)C)C(=O)N2C[C@H](O)C[C@H]2C(=O)N[C@@H](Cc2c[nH]c3ccccc23)C(=O)N[C@@H](CCNc2ncnc3c2sc2ccccc23)C(=O)N[C@@H](Cc2cn(CC(=O)O)c3ccccc23)C(=O)N1C [Compound 21014] ({CH2CO}-Y[NMeA]NP[Dap](X16)L[Hyp]W[Dab](X16)[Trp(1-CH2COOH)][NMeNle][NMeNle]LCG-NH2; thioether N-14)
89 | CCCC[C@H]1C(=O)N(C)[C@@H](CCCC)C(=O)N[C@@H](CC(C)C)C(=O)N[C@H](C(=O)NCC(N)=O)CSCC(=O)N[C@@H](Cc2ccc(O)cc2)C(=O)N(C)[C@@H](C)C(=O)N[C@@H](CC(N)=O)C(=O)N2CCC[C@H]2C(=O)N[C@@H](CNc2nc3cc(Cl)c(Cl)cc3s2)C(=O)N[C@@H](CC(C)C)C(=O)N2C[C@H](O)C[C@H]2C(=O)N[C@@H](Cc2c[nH]c3ccccc23)C(=O)N[C@@H](CCNc2nc3cc(Cl)c(Cl)cc3s2)C(=O)N[C@@H](Cc2cn(CC(=O)O)c3ccccc23)C(=O)N1C [Compound 11005] ({CH2CO}-Y[NMeA]NP[Dap](X17)L[Hyp]W[Dab](X17)[Trp(1-CH2COOH)][NMeNle][NMeNle]LCG-NH2; thioether N-14)
11 | CCCC[C@H]1C(=O)N(C)[C@@H](CCCC)C(=O)N[C@@H](CC(C)C)C(=O)N[C@H](C(=O)NCC(N)=O)CSCC(=O)N[C@@H](Cc2ccc(O)cc2)C(=O)N(C)[C@@H](C)C(=O)N[C@@H](CC(N)=O)C(=O)N2CCC[C@H]2C(=O)N[C@@H](CNc2nccc(-c3ccccc3)n2)C(=O)N[C@@H](CC(C)C)C(=O)N2C[C@H](O)C[C@H]2C(=O)N[C@@H](Cc2c[nH]c3ccccc23)C(=O)N[C@@H](CCN)C(=O)N[C@@H](Cc2cn(CC(=O)O)c3ccccc23)C(=O)N1C [Compound 1006] ({CH2CO}-Y[NMeA]NP[Dap](X18)L[Hyp]W[Dab][Trp(1-CH2COOH)][NMeNle][NMeNle]LCG-NH2; thioether N-14)
4.5 | CCCC[C@H]1C(=O)N(C)[C@@H](CCCC)C(=O)N[C@@H](CC(C)C)C(=O)N[C@H](C(=O)NCC(N)=O)CSCC(=O)N[C@@H](Cc2ccc(O)cc2)C(=O)N(C)[C@@H](C)C(=O)N[C@@H](CC(N)=O)C(=O)N2CCC[C@H]2C(=O)N[C@@H](CNc2ccc(C#N)cn2)C(=O)N[C@@H](CC(C)C)C(=O)N2C[C@H](O)C[C@H]2C(=O)N[C@@H](Cc2c[nH]c3ccccc23)C(=O)N[C@@H](CCNc2ccc(C#N)cn2)C(=O)N[C@@H](Cc2cn(CC(=O)O)c3ccccc23)C(=O)N1C [Compound 1002] ({CH2CO}-Y[NMeA]NP[Dap](X3)L[Hyp]W[Dab](X3)[Trp(1-CH2COOH)][NMeNle][NMeNle]LCG-NH2; thioether N-14)
2.4 | CCCC[C@H]1C(=O)N(C)[C@@H](CCCC)C(=O)N[C@@H](CC(C)C)C(=O)N[C@H](C(=O)NCC(N)=O)CSCC(=O)N[C@@H](Cc2ccc(O)cc2)C(=O)N(C)[C@@H](C)C(=O)N[C@@H](CC(N)=O)C(=O)N2CCC[C@H]2C(=O)N[C@@H](CNc2nc3c(nc(Cl)c4ncn(C)c43)s2)C(=O)N[C@@H](CC(C)C)C(=O)N2C[C@H](O)C[C@H]2C(=O)N[C@@H](Cc2c[nH]c3ccccc23)C(=O)N[C@@H](CCN)C(=O)N[C@@H](Cc2cn(CC(=O)O)c3ccccc23)C(=O)N1C [Compound 21001] ({CH2CO}-Y[NMeA]NP[Dap](X8)L[Hyp]W[Dab][Trp(1-CH2COOH)][NMeNle][NMeNle]LCG-NH2; thioether N-14)
9.8 | CCCC[C@H]1C(=O)N(C)[C@@H](CCCC)C(=O)N[C@@H](CC(C)C)C(=O)N[C@H](C(=O)NCC(N)=O)CSCC(=O)N[C@@H](Cc2ccc(O)cc2)C(=O)N(C)[C@@H](C)C(=O)N[C@@H](CC(N)=O)C(=O)N2CCC[C@H]2C(=O)N[C@@H](CNc2ncnc(N3CCN(c4ccccc4)CC3)n2)C(=O)N[C@@H](CC(C)C)C(=O)N2C[C@H](O)C[C@H]2C(=O)N[C@@H](Cc2c[nH]c3ccccc23)C(=O)N[C@@H](CCNc2ncnc(N3CCN(c4ccccc4)CC3)n2)C(=O)N[C@@H](Cc2cn(CC(=O)O)c3ccccc23)C(=O)N1C [Compound 1009] ({CH2CO}-Y[NMeA]NP[Dap](X19)L[Hyp]W[Dab](X19)[Trp(1-CH2COOH)][NMeNle][NMeNle]LCG-NH2; thioether N-14)
7.9 | CCCC[C@H]1C(=O)N(C)[C@@H](CCCC)C(=O)N[C@@H](CC(C)C)C(=O)N[C@H](C(=O)NCC(N)=O)CSCC(=O)N[C@@H](Cc2ccc(O)cc2)C(=O)N(C)[C@@H](C)C(=O)N[C@@H](CC(N)=O)C(=O)N2CCC[C@H]2C(=O)N[C@@H](CNc2nc3ccccc3s2)C(=O)N[C@@H](CC(C)C)C(=O)N2C[C@H](O)C[C@H]2C(=O)N[C@@H](Cc2c[nH]c3ccccc23)C(=O)N[C@@H](CCN)C(=O)N[C@@H](Cc2cn(CC(=O)O)c3ccccc23)C(=O)N1C [Compound 11012] ({CH2CO}-Y[NMeA]NP[Dap](X1)L[Hyp]W[Dab][Trp(1-CH2COOH)][NMeNle][NMeNle]LCG-NH2; thioether N-14)
